Reference: patent US4108991A, “N-aminosulfenyl derivatives of aldicarb” (priority 1976, dated 1978)
Values joined by “and” are separate entries in the source; they are usually repeats but may differ in a detail not shown here. Identical values can stand only once.

Key:
Mexican bean beetle [1] = test: Residual (7-day) contact activity, Mexican bean beetle; assay type: in vivo, Epilachna varivestis Muls.; details: Epilachna varivestis, 168 h
Experimental: (§1) Initial Contact Activity: One half gram of test compound was dissolved in 40 ml of acetone and this solution was dispersed in 360 ml of water containing one drop of isooctylphenyl polyethoxyethanol. Aliquots of this solution, which corresponds to 1250 ppm of active ingredient, were diluted with an appropriate amount of water to provide solutions containing various concentrations of active ingredient. Test organisms and techniques were as follows: The activity against the Mexican bean beetle (Epilachna varivestis Muls.) and the southern armyworm (Spodoptera eridania [Cram.]) was evaluated by dipping the leaves of pinto bean plants into the test solution and infesting the leaves with the appropriate immature-form insects when the foiliage had dried; the activity against the pea aphid (Acyrthosiphon pisum [Harris]) was evaluated on broad bean plants whose leaves were dipped before infestation with adult aphids; the activity against two-sotted spider mites (Tetranychus urticae Koch) was evaluated on pinto bean plants whose leaves were dipped after infestation with adult mites; the activity against the milkweed bug (Oncopeltus fasciatus [Dallas]), and the plum curculio (Conotrachelus nenuphar [Herbst]) was evaluated by spraying the test solutions into glass dishes or jars containing the adult insects; the activity against the confused flour beetle (Tribolium confusum duVal) was evaluated by introducing the insects into glass dishes which had been previously sprayed with test solution and allowed to dry. All organisms in the test were maintained in a holding room at 80° F and 50% relative humidity for an exposure period of 48 hours. At the end of this time, the dead and living insects or mites were counted, and the percent kill was calculated.
(§2) Residual Contact Activity: The residual contact activity of the compounds was determined on the same organisms using the techniques described above, except that in each case the treated surface was allowed to dry and was exposed to normal light and air for seven days before introduction of the mites or insects.

Mexican bean beetle [2] = test: Initial contact activity, leaf dip, Mexican bean beetle; assay type: in vivo, Epilachna varivestis Muls.
Experimental: as §1

Pea aphid [3] = test: Initial contact activity, leaf dip, pea aphid; assay type: in vivo, Acyrthosiphon pisum [Harris]; details: for Percent Kill: initial, PA, 48 hours
Experimental: as §1

Granary Weevil = test: Residual (7-day) contact activity, granary weevil; assay type: in vivo; details: Sitophilus granarius, 168 h, read-out: Percent Kill
Milkweed bug [4] = test: Initial contact activity, spray, milkweed bug; assay type: in vivo, Oncopeltus fasciatus [Dallas]
Experimental: as §1

Mexican bean beetle [5] = test: Systemic activity, soil-watering, Mexican bean beetle; assay type: in vivo, Epilachna varivestis Muls.; details: Epilachna varivestis, 48 h
Experimental: as §1
(§3) Systemic Activity: Systemic activity was measured using a soil-watering technique. Test organisms were Mexican bean beetle, southern armyworm, pea aphid, and mites on plants as described above in this Example. With appropriate precautions to avoid contact of the solution with the test plant surfaces, 25 ml of a test solution, prepared as above to contain the desired amount of active ingredient, were poured evenly over the surface of the soil in which the plant was growing. The treated plants were maintained under normal growing conditions for three days to permit translocation of the toxicant, after which the leaves were infested. Two days after infestation, counts of living and dead insects were made.

Southern armyworm [6] = test: Initial contact activity, leaf dip, southern armyworm; assay type: in vivo, Spodoptera eridania [Cram.]; details: for Percent Kill: initial, AW, 48 hours
Experimental: as §1

Southern armyworm [7] = test: Residual (7-day) contact activity, southern armyworm; assay type: in vivo, Spodoptera eridania [Cram.]; details: Spodoptera eridania, 168 h
Experimental: as §1, §2

Two-spotted spider mite [8] = test: Residual (7-day) contact activity, two-spotted spider mite; assay type: in vivo, Tetranychus urticae Koch
Experimental: as §1, §2

Two-spotted spider mite [9] = test: Initial contact activity, leaf dip, two-spotted spider mite; assay type: in vivo, Tetranychus urticae Koch; details: for Percent Kill: initial, SM, 48 hours, 2880 min
Experimental: as §1

Milkweed bug [10] = test: Residual (7-day) contact activity, milkweed bug; assay type: in vivo, Oncopeltus fasciatus [Dallas]; details: for Percent Kill: residual 7-day, MWB
Experimental: as §1, §2

Two-spotted spider mite [11] = test: Systemic activity, soil-watering, two-spotted spider mite; assay type: in vivo, Tetranychus urticae Koch; details: Tetranychus urticae, 48 h
Experimental: as §1, §3

Pea aphid [12] = test: Residual (7-day) contact activity, pea aphid; assay type: in vivo, Acyrthosiphon pisum [Harris]; details: Acyrthosiphon pisum, 168 h
Experimental: as §1, §2

Plum curculio = test: Residual (7-day) contact activity, plum curculio; assay type: in vivo, Conotrachelus nenuphar [Herbst]
Experimental: as §1, §2

Confused flour beetle = test: Residual (7-day) contact activity, confused flour beetle; assay type: in vivo, Tribolium confusum duVal; details: Tribolium confusum, 168 h, read-out: Percent Kill
Experimental: as §1, §2

[13] = Conotrachelus nenuphar, 168 h, read-out: Percent Kill

Compound: CNC(=O)ON=CC(C)(C)SC [Aldicarb, 2-methyl-2-(methylthio)propanal O-(methylcarbamoyl)oxime]
- mortality at 625 ppm (Mexican bean beetle [1]; read-out: Percent Kill, residual 7-day, BB, 625 PPM): 47%
- mortality at 1250 ppm (Mexican bean beetle [1]; read-out: Percent Kill, residual 7-day, BB, 1250 PPM): 100%
- mortality at 20 ppm (Mexican bean beetle [2]; Epilachna varivestis, foliar, 48 h, read-out: Percent Kill, initial, BB, 20 PPM, 48 hours): 0%
- mortality at 39 ppm (Mexican bean beetle [2]; Epilachna varivestis, foliar, 48 h, read-out: Percent Kill, initial, BB, 39 PPM, 48 hours): 40%
- mortality at 156 ppm (Mexican bean beetle [2]; Epilachna varivestis, foliar, 48 h, read-out: Percent Kill, initial, BB, 156 PPM, 48 hours): 89%
- mortality at 312 ppm (Mexican bean beetle [2]; Epilachna varivestis, foliar, 48 h, read-out: Percent Kill, initial, BB, 312 PPM, 48 hours): 95%
- mortality at 625 ppm (Mexican bean beetle [2]; Epilachna varivestis, foliar, 48 h, read-out: Percent Kill, initial, BB, 625 PPM, 48 hours): 100%
- mortality at 1250 ppm (Mexican bean beetle [2]; Epilachna varivestis, foliar, 48 h, read-out: Percent Kill, initial, BB, 1250 PPM, 48 hours): 100%
- Percent Kill (Mexican bean beetle [2]; initial, BB, 156 PPM, 48 hours, 2880 min): 91%
- mortality at 10 ppm (Pea aphid [3]; Acyrthosiphon pisum, foliar, 48 h, read-out: Percent Kill, initial, PA, 10 PPM, 48 hours): 33%
- mortality at 20 ppm (Pea aphid [3]; Acyrthosiphon pisum, foliar, 48 h, read-out: Percent Kill, initial, PA, 20 PPM, 48 hours): 35%
- mortality at 156 ppm (Pea aphid [3]; Acyrthosiphon pisum, foliar, 48 h, read-out: Percent Kill, initial, PA, 156 PPM, 48 hours): 100%
- mortality at 1250 ppm (Pea aphid [3]; Acyrthosiphon pisum, foliar, 48 h, read-out: Percent Kill, initial, PA, 1250 PPM, 48 hours): 100%
- Percent Kill (Pea aphid [3]; 39 PPM, 2880 min): 60% and 85%
- Percent Kill (Pea aphid [3]; 156 PPM): 100%
- mortality at 312 ppm (Granary Weevil): 3.3%
- mortality at 1250 ppm (Granary Weevil): 0%
- mortality at 5 ppm (Milkweed bug [4]; Oncopeltus fasciatus, 48 h, read-out: Percent Kill, initial, MWB, 5 PPM, 48 hours): 30%
- mortality at 10 ppm (Milkweed bug [4]; Oncopeltus fasciatus, 48 h, read-out: Percent Kill, initial, MWB, 10 PPM, 48 hours): 55%
- mortality at 20 ppm (Milkweed bug [4]; Oncopeltus fasciatus, 48 h, read-out: Percent Kill, initial, MWB, 20 PPM, 48 hours): 95%
- mortality at 39 ppm (Milkweed bug [4]; Oncopeltus fasciatus, 48 h, read-out: Percent Kill, initial, MWB, 39 PPM, 48 hours): 100%
- mortality at 156 ppm (Milkweed bug [4]; Oncopeltus fasciatus, 48 h, read-out: Percent Kill, initial, MWB, 156 PPM, 48 hours): 100%
- mortality at 1250 ppm (Milkweed bug [4]; Oncopeltus fasciatus, 48 h, read-out: Percent Kill, initial, MWB, 1250 PPM, 48 hours): 100%
- Percent Kill (Milkweed bug [4]; initial, MWB, 10 PPM, 48 hours, 2880 min): 70%
- mortality at 39 ppm (Mexican bean beetle [5]; read-out: Percent Kill, systemic, BB, 39 PPM): 100%
- mortality at 156 ppm (Mexican bean beetle [5]; read-out: Percent Kill, systemic, BB, 156 PPM): 100%
- mortality at 156 ppm (Southern armyworm [6]; Spodoptera eridania, foliar, 48 h, read-out: Percent Kill, initial, AW, 156 PPM, 48 hours): 23%
- mortality at 312 ppm (Southern armyworm [6]; Spodoptera eridania, foliar, 48 h, read-out: Percent Kill, initial, AW, 312 PPM, 48 hours): 0%
- mortality at 625 ppm (Southern armyworm [6]; Spodoptera eridania, foliar, 48 h, read-out: Percent Kill, initial, AW, 625 PPM, 48 hours): 12%
- Percent Kill (Southern armyworm [6]; 312 PPM): 0%
- Percent Kill (Southern armyworm [6]; 625 PPM, 2880 min): 15%
- mortality at 312 ppm (Southern armyworm [7]; read-out: Percent Kill, residual 7-day, AW, 312 PPM): 0%
- mortality at 625 ppm (Southern armyworm [7]; read-out: Percent Kill, residual 7-day, AW, 625 PPM): 0%
- mortality at 39 ppm (Two-spotted spider mite [8]; Tetranychus urticae, 168 h, read-out: Percent Kill, residual 7-day, SM, 39 PPM): 17%
- mortality at 156 ppm (Two-spotted spider mite [8]; Tetranychus urticae, 168 h, read-out: Percent Kill, residual 7-day, SM, 156 PPM): 91.5%
- mortality at 312 ppm (Two-spotted spider mite [8]; Tetranychus urticae, 168 h, read-out: Percent Kill, residual 7-day, SM, 312 PPM): 97%
- mortality at 1250 ppm (Two-spotted spider mite [8]; Tetranychus urticae, 168 h, read-out: Percent Kill, residual 7-day, SM, 1250 PPM): 98.6%
- Percent Kill (Two-spotted spider mite [8]; residual 7-day, SM, 156 PPM): 90%
- mortality at 5 ppm (Two-spotted spider mite [9]; Tetranychus urticae, foliar, 48 h, read-out: Percent Kill, initial, SM, 5 PPM, 48 hours): 21%
- mortality at 10 ppm (Two-spotted spider mite [9]; Tetranychus urticae, foliar, 48 h, read-out: Percent Kill, initial, SM, 10 PPM, 48 hours): 88%
- mortality at 20 ppm (Two-spotted spider mite [9]; Tetranychus urticae, foliar, 48 h, read-out: Percent Kill, initial, SM, 20 PPM, 48 hours): 100%
- mortality at 39 ppm (Two-spotted spider mite [9]; Tetranychus urticae, foliar, 48 h, read-out: Percent Kill, initial, SM, 39 PPM, 48 hours): 100%
- mortality at 156 ppm (Two-spotted spider mite [9]; Tetranychus urticae, foliar, 48 h, read-out: Percent Kill, initial, SM, 156 PPM, 48 hours): 100%
- mortality at 1250 ppm (Two-spotted spider mite [9]; Tetranychus urticae, foliar, 48 h, read-out: Percent Kill, initial, SM, 1250 PPM, 48 hours): 100%
- Percent Kill (Two-spotted spider mite [9]; 10 PPM): 100%
- Percent Kill (Two-spotted spider mite [9]; 1250 PPM): 95%
- mortality at 156 ppm (Milkweed bug [10]; Oncopeltus fasciatus, 168 h, read-out: Percent Kill, residual 7-day, MWB, 156 PPM): 15%
- mortality at 312 ppm (Milkweed bug [10]; Oncopeltus fasciatus, 168 h, read-out: Percent Kill, residual 7-day, MWB, 312 PPM): 80%
- mortality at 625 ppm (Milkweed bug [10]; Oncopeltus fasciatus, 168 h, read-out: Percent Kill, residual 7-day, MWB, 625 PPM): 100%
- mortality at 1250 ppm (Milkweed bug [10]; Oncopeltus fasciatus, 168 h, read-out: Percent Kill, residual 7-day, MWB, 1250 PPM): 100%
- Percent Kill (Milkweed bug [10]; 312 PPM): 70%
- Percent Kill (Milkweed bug [10]; 1250 PPM): 100%
- mortality at 2.5 ppm (Two-spotted spider mite [11]; read-out: Percent Kill, systemic, SM, 2.5 PPM): 4.6%
- mortality at 10 ppm (Two-spotted spider mite [11]; read-out: Percent Kill, systemic, SM, 10 PPM): 100%
- mortality at 39 ppm (Two-spotted spider mite [11]; read-out: Percent Kill, systemic, SM, 39 PPM): 100%
- mortality at 156 ppm (Pea aphid [12]; read-out: Percent Kill, residual 7-day, PA, 156 PPM): 0%
- mortality at 625 ppm (Pea aphid [12]; read-out: Percent Kill, residual 7-day, PA, 625 PPM): 10%
- mortality at 1250 ppm (Pea aphid [12]; read-out: Percent Kill, residual 7-day, PA, 1250 PPM): 100%
- mortality at 156 ppm (Plum curculio; [13]): 4.8%
- mortality at 312 ppm (Plum curculio; [13]): 32%
- mortality at 625 ppm (Plum curculio; [13]): 0%
- mortality at 1250 ppm (Plum curculio; [13]): 0%
- Percent Kill (Plum curculio; residual 7-day, PC, 1250 PPM): 0%
- mortality at 312 ppm (Confused flour beetle): 0%
- mortality at 1250 ppm (Confused flour beetle): 0%
